Results reported in patent US7371555B2, “Polypeptides having α-H-α-amino acid amide racemase activity and nucleic acids encoding the same” (DSM IP Assets B.V., priority 2002, dated 2008).
Residues, ends and D or L forms follow the SMILES beside them.

How the values were obtained:
[1] = tested on: partially purified α-H-α-amino acid amide racemase from O. anthropi IA; assay: Substrate specificity of the partially purified racemase (Example 8); format: biochemical, Ochrobactrum anthropi IA; set-up: tested at 75 mM; conditions: relative to the activity towards L-leucine amide; pH 8.0, 37° C.
Experimental: The substrate specificity of the O. anthropi IA α-H-α-amino acid amide racemase was determined using the partially purified enzyme preparation obtained by the protocol described above. Reaction mixtures of 1 ml total volume were prepared by mixing 772 μl of 66.6 mM HEPES-NaOH, pH 8.0, 10 μl of 0.1 M dithiothreitol, 18 μl of a solution containing 20 mg/ml BSA and 1 mM pyridoxal-5-phosphate, and 100 μl of a 0.75 M substrate solution, pH 8.0. After equilibration for 5 minutes at 37° C., the reactions were started by the addition of 100 μl of the enzyme solution. Reaction mixtures were incubated at 37° C. without shaking. After regular time intervals, samples of 50 μl were taken and transferred into vials containing 950 μl of 1 M H3PO4 to stop the reaction. After sufficient dilution of the samples in 0.4 M borate buffer pH 9.4, the mixtures obtained were analyzed using HPLC to determine the exact concentrations of two amino acid amide enantiomers according to the method of Example 7.
Initial activity for the different substrates tested was calculated from the linear parts of the progress curves, in which the amount of the amino acid amide enantiomer formed (so with a stereochemistry opposite to the substrate molecule) was plotted against the reaction time.

[2] = tested on: α-H-α-amino acid amide racemase from Ochrobactrum anthropi IA; assay: Substrate specificity, CFE from E. coli TOP10/pKEC_AZAR_3 (Example 7); format: biochemical; conditions: relative to the activity towards D-leucine amide; 75 mM substrate, 20 mM EDTA, pH 8.0, 37° C.
Experimental: Two pre-cultures of E. coli TOP10/pKEC_AZAR—3 (see Example 4) were prepared by inoculation of 2 erlenmeyer flasks with 100 ml of 2*TY medium (10 g/l Yeast extract, 16 g/l Tryptone, 5 g/l NaCl) containing 50 mg/l of kanamycin with 10 μl of a glycerol stock per flask. After overnight cultivation at 28° C. and 200 rpm, the pre-cultures were pooled, and subsequently used to inoculate 2 erlenmeyer flasks each containing 1 l of the same medium. Also these flasks were cultivated at 28° C. and 200 rpm for 16-18 h. Cells were harvested by centrifugation (15 min. at 6,200×g, 4° C.), washed with 20 mM HEPES-NaOH, pH 7.5, pooled, weighed, and resuspended in a solution containing 20 mM HEPES-NaOH, pH 7.5, 20 μM pyridoxal-5-phosphate, and 1.3 mM of dithiothreitol in a 1:3 ratio of wet weight cells to solution. Then, cells were disintegrated by 10 min. sonification with a Soniprep 150 of MSE operated at maximum amplitude using time intervals of 10 sec. (i.e., 10 sec. sonification, 10 sec. cooling) and cooling in ice/acetone. Particles were removed by centrifugation, after which sucrose was added to the cell free extract to a final concentration of 0.25 M. The resulting cell free extract (CFE) was stored in aliquots at −20° C. E. coli TOP10/pBAD/Myc-HisC (Invitrogen) cells were treated in exactly the same way and served as negative control.
The substrate specificity of the α-H-α-amino acid racemase from O. anthropi IA was determined by measuring the racemase activity of the above-mentioned CFE towards a number of enantiomerically pure amino acid amides. Each reaction mixture of 10 ml (including the CFE) contained 50 mM HEPES-NaOH, pH 8.0, 20 μM pyridoxal-5-phosphate, 0.4 mg/ml BSA, 1 mM dithiothreitol, 20 mM EDTA and 75 mM of one of the amino acid amides tested. Reactions were started by the addition of 1 ml of the thawed CFE of E. coli TOP10/pKEC_AZAR—3 or E. coli TOP10/pBAD/Myc-HisC (blank) and were incubated at 37° C. At regular time intervals samples of 1 ml were taken and transferred to vials containing 1 ml of 1M H3PO4 to stop the reaction. After sufficient dilution of the samples in 0.4 M borate buffer pH 9.4, the mixtures obtained were analyzed using HPLC to determine the exact concentrations of the two amino acid and two amino acid amide enantiomers according to the following method.
The initial activity for the different substrates tested was calculated from the linear parts of the progress curves, in which the conversion was plotted against the reaction time. Use of the linear part of the progress curves secured that only samples taken at time points at which the substrate concentration was still sufficiently high, were used for the calculations. The conversion was calculated by dividing the amount of amino acid and amino acid amide formed via the racemase reaction (so with the opposite stereochemistry compared to the substrate molecule) by the total amount of two amino acid enantiomers and the two amino acid amide enantiomers.

[3] = tested on: α-H-α-amino acid amide racemase from Arthrobacter nicotianae NCIMB 41126; assay: Substrate specificity, CFE from E. coli DH10B/pAn(1)PLV36D06 (Example 9); format: biochemical; conditions: relative to the activity towards D-leucine amide; 75 mM substrate, pH 8.0, 37° C.
Experimental: Preparation of the CFE of E. coli DH10B/pAn(1)PLV36D06 was performed as described in Example 7 for E. coli TOP10/pKEC_AZAR—3
Before applying the CFE from E. coli DH10B/pAn(1)PLV36D06 in the reactions with different enantiomerically pure α-H-α-amino acid amides to determine the substrate specificity of the A. nicotianae α-H-α-amino acid amide racemase, the E. coli amidases/aminopeptidases in this CFE were inhibited by a pre-treatment with an inhibitor cocktail. One tablet of Complete Mini Protease Inhibitor Cocktail (Roche Applied Science, Mannheim, Germany) was dissolved in 9 ml of the CFE followed by an incubation of 1 hour at room temperature. Next, reaction mixtures of 10 ml each (including the CFE) were prepared containing 50 mM HEPES-NaOH, pH 8.0, 20 μM pyridoxal-5-phosphate, 0.4 mg/ml BSA, 1 mM dithiothreitol and 75 mM of one of the amino acid amides tested. Reactions were started by the addition of 1 ml of the pre-treated CFE of E. coli DH10B/pAn(1)PLV36D06 or E. coli TOP10/pBAD/Myc-HisC (blank) and were incubated at 37° C. At regular time intervals samples of 1 ml were taken and transferred to vials containing 1 ml of 1M H3PO4 to stop the reaction. After sufficient dilution of the samples in 0.4 M borate buffer pH 9.4, the mixtures obtained were analyzed using HPLC to determine the exact concentrations of the two amino acid and two amino acid amide enantiomers according to the method of Example 7.

[4] = tested on: E. coli clones with plasmid encoded A. nicotianae NCIMB 41126 α-H-α-amino acid amide racemase activity; assay: Confirmation of potential positive clones of the A. nicotianae NCIMB 41126 gene library; format: cell-based, Arthrobacter nicotianae NCIMB 41126; conditions: 70 mM substrate, 10 μM pyridoxal-5-phosphate, 20 h at 30° C.
Experimental: Of all 32 potential positive clones identified in the screening, material from the masterplates was used to inoculate 3 ml of liquid screening medium containing 50 mg/l kanamycin. After growth for 2 days at 30° C., cells were collected by centrifuging 2 ml of these cell cultures. Then the cell pellets were washed four times in 25 mM Tris-HCl buffer, pH 7.5. Subsequently, the cell pellets were resuspended in 100 μl substrate solution containing 70 mM of D-phenylalanine amide, or D-leucine amide, or D-valine amide in 50 mM Tris-HCl, pH 7.5 and 1 mM MnCl2. After incubation for 20 h at 30° C., the reactions were stopped by the addition of 100 μl of 0.15 M HCl, after which the reaction mixtures were analyzed by the HPLC method described in Example 1.
Confirmation of both potential positive clones was done according to the protocol given in Example 3, with the exception that all 3 substrate solutions used contained 10 μM of pyridoxal-5-phosphate.

[5] = tested on: lyophilized O. anthropi IA cells; assay: α-H-α-amino acid amide racemase activity of lyophilized O. anthropi IA cells; format: biochemical, Ochrobactrum anthropi IA; conditions: approximately 72 hours at 40° C., 10 times diluted reaction mixture
Experimental: O. anthropi IA cells were cultivated in Medium A containing DL-α-amino-ε-caprolactam (2 g/l) as sole nitrogen source. After incubation at 28° C. and 200 rpm for three days (OD620 nm=4.7), cells were harvested by centrifugation, washed in 20 mM HEPES-NaOH buffer of pH 7.7 and lyophilized.
The assay mixture consisted of 10 mM HEPES-NaOH buffer (pH 7.7) containing toluene (2,5 v/v %), pyridoxal-5-phosphate (20 μM), D- or L-leucine amide (2.5 m %) and in some cases EDTA (20 mM). Per assay 150 mg of lyophilized cells were used. Chemical blanks (with the assay mixture without the O. anthropi IA cells) were used as a negative control. All reaction mixtures (including the blanks) were incubated for approximately 72 hours at 40° C. before the reaction was stopped by the addition of 9 volumes of 1 M H3PO4. Finally, the reaction mixtures were analyzed by HPLC to determine the concentrations of D- and L-leucine amide and of D- and L-leucine. o-Phthaldehyde in combination with D-3-mercapto-2-methylpropionic acid was used in this HPLC method as a chiral reagent for the enantioseparation of these amino compounds (Duchateau, et al., J. Chromatogr. (1992) 623:237-245).
In a number of reactions EDTA was added to inhibit L- and/or D-specific amidase(s) present in the O. anthropi IA cells.
Without EDTA, amidases convert the substrate and/or product α-H-α-amino acid amides into α-H-α-amino acids thereby preventing direct detection of the other α-H-α-amino acid amide enantiomer as racemization product. […] Formation of L-leucine from D-leucine amide could not be detected in the chemical blank.

[6] = biological target: T1, α-amino-ε-caprolactam racemase from Achromobacter obae (Achromobacter obae, UniProt Q7M181); conditions: even when an excess amount of enzyme was used; cited from earlier work
T1 sequence (Q7M181 1-436): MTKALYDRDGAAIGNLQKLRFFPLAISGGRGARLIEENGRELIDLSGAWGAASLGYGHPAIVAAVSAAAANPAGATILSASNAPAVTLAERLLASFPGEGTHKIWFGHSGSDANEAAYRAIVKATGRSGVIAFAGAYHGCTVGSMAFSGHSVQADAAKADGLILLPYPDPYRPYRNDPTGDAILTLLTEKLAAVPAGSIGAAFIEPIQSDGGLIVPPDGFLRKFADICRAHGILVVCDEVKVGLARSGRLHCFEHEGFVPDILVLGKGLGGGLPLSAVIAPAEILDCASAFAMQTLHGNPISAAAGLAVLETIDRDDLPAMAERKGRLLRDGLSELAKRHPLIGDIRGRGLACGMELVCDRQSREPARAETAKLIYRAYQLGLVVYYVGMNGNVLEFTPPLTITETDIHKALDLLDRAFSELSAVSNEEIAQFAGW

SMILES	Rel. initial activity [1] [%]	α-H-α-amino acid amide racemase activity [6]	other results
NC(=O)[C@H](N)CCCC1OCCO1 [D-2-amino-5-[1,3]dioxolan-2-yl-pentanoicacid amide]	9.1	–	–
C[C@@H](N)C(N)=O [D-alanine amide]	–	–	Rel. initial activity [2]: 85%
CCC[C@@H](N)C(N)=O [D-norvaline amide]	341	–	Rel. initial activity [2]: 94%; Rel. initial activity [3]: 107%
NC(=O)[C@H](N)c1ccccc1 [D-phenylglycineamide]	9.1	–	–
CC(C)[C@@H](N)C(N)=O [D-valine amide]	–	–	conversion of D-amide into L-acid [4]: significantly converted; Rel. initial activity [3]: 45%
CC[C@H](N)C(N)=O [L-2-aminobutyric acid amide]	641	–	Rel. initial activity [2]: 203%; Rel. initial activity [3]: 76%
C[C@H](N)C(N)=O [L-alanine amide]	350	–	–
CC(C)C[C@H](N)C(N)=O [L-leucine amide]	100	no α-H-α-amino acid amide racemase activity was found	D-leucine ([5]; with EDTA (20 mM)): 0.003 m %; D-leucine amide ([5]; with EDTA (20 mM)): 0.021 m %; L-leucine ([5]; with EDTA (20 mM)): 0.058 m %; L-leucine amide ([5]; with EDTA (20 mM)): 0.15 m %; D-leucine ([5]; without EDTA): 0.001 m %; D-leucine amide ([5]; without EDTA): <0.001 m %; L-leucine ([5]; without EDTA): 0.21 m %; L-leucine amide ([5]; without EDTA): <0.001 m %
CC(C)C[C@H](N)C(=O)N[C@@H](C)C(=O)O [L-leucyl-L-alanine] (H-Leu-Ala-OH)	–	no α-H-α-amino acid amide racemase activity was found	–
CC(C)C[C@H](N)C(=O)NCC(=O)O [L-leucyl-glycine] (H-Leu-Gly-OH)	–	no α-H-α-amino acid amide racemase activity was found	–
NC(=O)[C@@H](N)Cc1ccccc1 [L-phenylalanineamide]	4.5	–	–
NC(=O)[C@@H](N)CO [L-serine amide]	–	–	Rel. initial activity [2]: 83%
NC(=O)[C@@H](N)Cc1c[nH]c2ccccc12 [L-tryptophan amide]	–	no α-H-α-amino acid amide racemase activity was found	–
CC(C)[C@H](N)C(N)=O [L-valine amide]	4.5	–	–
CC(C)[C@H](N)C(=O)N[C@@H](C)C(=O)O [L-valyl-L-alanine] (H-Val-Ala-OH)	–	no α-H-α-amino acid amide racemase activity was found	–
CC(C)[C@H](N)C(=O)NCC(=O)O [L-valyl-glycine] (H-Val-Gly-OH)	–	no α-H-α-amino acid amide racemase activity was found	–
CC[C@H](C)[C@H](N)C(N)=O [LL-isoleucine amide]	4.5	–	–
C[C@H](O)[C@H](N)C(N)=O [LL-threonine amide]	100	–	–
